# Data as given in US8080379B2, “Branched and multi-chain nucleic acid switches for sensing and screening” (Syracuse University, priority 2004, dated 2011).
# B1: M3: tethered duplex of all-DNA chain SEQ ID NO: 3 and DNA/RNA chimeric chain SEQ ID NO: 6 (nucleic acid)
# chain 1: GCTATCCACCGATAGCTCACAGCACGACTCAGATGG
# chain 2: CCATCTGAGTCGTGCACGCUAGCGGUGGCUAGC
# modifications: chain 1: DNA, backbone not given here; chain 2: chemistry not given here; strands tethered, second strand DNA/RNA chimera
# How the values were obtained:
# NCp7 [1] = molecular target: T1, NCp7 (Human immunodeficiency virus type 1 group M subtype B, UniProt P12493); conditions: read-out: Kd′, single binding constant fit of FRET titration; Nt≅10 nM; emission at 517 nm
# Description: FRET-monitored titration of the C3 (SEQ ID NO: 7) (Nt≅10 nM). [NCp7] increases left to right, expressed as the ratio Pt/Nt. The emission at 517 nm is reported after subtracting that of the RNase treated sample. […] Uncertainty in Nt limits the precision of this determination.
# A fluorophore is placed at the 5′-end of the chain (*), and a quencher at the location marked Q. The distance between fluorophore and quencher is much larger in H than in O, so H has much stronger fluorescence.
# [2] = H/O conformational equilibrium of the C3 switch by fluorescence; assay type: physicochemical; conditions: no protein
# Text: Such “molecular beacons” operate on the principle of FRET.
# It is appropriate to examine the two extreme states in FIG. 11 (sequences M1 and M2 in Table 2). This allows evaluation of the position of the K1 equilibrium shift upon changing the sequence. Simply put, the luminescence of pure H and O are known, so their populations in a mixed system are just linear functions of the measured luminescence.
# NC = NC (Human immunodeficiency virus type 1 group M subtype B, UniProt P12493); conditions: cited from earlier work
# NCp7 [3] = molecular target: T1, NCp7; conditions: 10 nM concentration of the switch
molecule,measurement,setting,value
"C3: unimolecular bistable RNA/DNA switch, SEQ ID NO: 7, with FAM fluorophore and Dabsyl quencher (GCTATCCACCGATAGCTCCAACACGCUAGCGGUGGCUAGC; RNA/DNA chimera, FAM fluorophore and Dabsyl quencher, positions not given here)",Kd,NCp7 [1],500 nM
same,K1 = [O]/[H],[2],0.08
c(F-C-dW-R-C-K),"competition with NC for in vitro recognition of its RNA, DNA and protein targets",NC,competes with NC
B1,time of equilibration with NCp7,NCp7 [3],within a minute
